From patent publication US20240207285A1 (Melt Pharmaceuticals, Inc., priority 2022, published 2024)

What was measured:
[1] = Phase 1 relative bioavailability study: plasma pharmacokinetics of midazolam, 1-hydroxymidazolam, ketamine and norketamine
Description: PK analysis was performed using noncompartmental methods in Phoenix WinNonlin® (Version 8.1, Certara, L.P.) in conjunction with the internet-accessible implementation of the Pharsight® Knowledgebase Server™ (PKSO; Version 4.0.4, Certara, L.P). PKSO provides protected and structured storage, audit trails, and version control for study data, analyses, and related files, supporting 21 CFR Part 11 compliance. The analysis was performed in accordance with the Statistical Analysis Plan (Version 1.0, 5 Jan. 2021).
During the PK analysis, concentrations below the limit of quantitation (BLQ) up to the time of the first quantifiable concentration were treated as zero. Embedded (values between 2 quantifiable concentrations) and terminal BLQ concentrations were treated as “missing”. Calculation of the PK characteristics were based on actual elapsed times [h] (relative to time of dose).
All PK analyses were performed on the data from the PK Analysis Population. […] The ANOVA model included factors for sequence, subject within sequence, treatment, and period.

healthy adult subjects [2] = test: Phase 1 sedation level by Ramsay sedation scale (RSS); type: in vivo, human
Description: (§1) Pharmacodynamic parameters included sedation, defined as time to onset of sedation and sedation level, assessed using the Ramsay sedation scale (RSS), and cardiodynamics assessed by QTcF, heart rate, and PR and QRS intervals, and T-wave morphology and U-wave presence, extracted from ECGs collected via Holter monitor from predose through 24 hours postdose.
All pharmacodynamic analyses were performed on data from the Safety Population. The RSS scores were summarized by treatment and by timepoint. Time to onset of sedation was summarized by treatment and presented graphically.

healthy adult subjects [3] = test: Phase 1 adverse events; type: in vivo, human
Description: (§2) The Investigator evaluated safety using physical and oral examinations, O2 saturation (SpO2), vital sign measurements, clinical laboratory evaluations, electrocardiograms (ECGs), reported or observed adverse events (AEs), and assessments of neurocognitive function. Subjects were monitored for any AEs from the first dose through the end of the study.
Adverse events were coded using the Medical Dictionary for Regulatory Activities (MedDRA, version 22.0, or later) terms and summarized by system organ class (SOC) and preferred term (PT) within SOC. The number and percentage of subjects reporting TEAEs were summarized by reported SOC and PT for each treatment and the population overall. TEAEs were also summarized by maximum severity and nearest relationship to study drug, by SOC and PT for each treatment.
A by-subject AE (including treatment-emergent) data listing, including but not limited to verbatim term, SOC, PT, severity, and relationship to study treatment, was provided. Deaths, SAEs, and other significant AEs, including those leading to early termination of study treatments were listed.

healthy adult subjects [4] = test: Phase 1 vital signs and pulse oximetry; type: in vivo, human; conditions: for Mean changes from baseline in systolic and diastolic blood pressures: MELT-100 3/25 mg and 6/25 mg (so in the source), midazolam 3.5 mg IV, ketamine 18 mg IV, each timepoint
Description: as §2
(§3) Vital signs, clinical laboratory values (hematology, serum chemistry, and urinalysis), and 12-lead ECG parameters were summarized by treatment including any abnormal values flagged.

healthy adult subjects [5] = test: Phase 1 electrocardiograms / cardiodynamics; type: in vivo, human; conditions: one subject, 24 hours after midazolam 3.5 mg IV; not considered clinically significant
Description: as §1
An analysis of categorical outliers was performed for changes in heart rate; PR, QRS, and QTcF intervals; T-wave morphology; and U-wave presence.
as §3

[6] = Treatment D: ketamine 18 mg IV, mean
[7] = 5 minutes after ketamine 18 mg IV
[8] = Treatment C: midazolam 3.5 mg IV, mean

Compound: CNC1(c2ccccc2Cl)CCCCC1=O (centres unmarked) [Ketamine, 2-(2-chlorophenyl)-2-(methylamino)cyclohexanone]
- AUCExtrap, ketamine [1, 6]: 9.64%
- CL, ketamine [1, 6]: 59.9 L/h
- Clast, ketamine [1, 6]: 1.99 ng/mL
- half-life ([1]; human, plasma, iv, 18 mg): 618 min
- AUC(0-t) ([1]; human, plasma, iv, 18 mg, AUC0-t, ketamine, Treatment D: ketamine 18 mg IV, mean): 283 ng·h/mL
- AUC(0-inf) ([1]; human, plasma, iv, 18 mg, AUCinf, ketamine, Treatment D: ketamine 18 mg IV, mean): 316 ng·h/mL
- Cmax ([1]; human, plasma, iv, 18 mg, Cmax, ketamine, Treatment D: ketamine 18 mg IV, mean): 250 ng/mL
- AUC(0-t) ([1]; human, plasma, iv, 18 mg, GeoMean AUC0-t, ketamine, Ref (D) ketamine 18 mg IV, least squares geometric mean): 277 ng·h/mL
- AUC(0-inf) ([1]; human, plasma, iv, 18 mg, GeoMean AUCinf, ketamine, Ref (D) ketamine 18 mg IV, least squares geometric mean): 307 ng·h/mL
- Cmax ([1]; human, plasma, iv, 18 mg, GeoMean Cmax, ketamine, Ref (D) ketamine 18 mg IV, least squares geometric mean): 208 ng/mL
- Tmax ([1]; human, plasma, iv, 18 mg, Tmax, ketamine, Treatment D: ketamine 18 mg IV, median (range)): 10 min
- Subjects with RSS score of 1 (healthy adult subjects [2]; [7]): 1 (4.0%) subjects (%)
- Subjects with RSS score of 5 (healthy adult subjects [2]; [7]): 1 (4.0%) subjects (%)
- Highest proportion of subjects with RSS scores >2 postdose (healthy adult subjects [2]; ketamine 18 mg IV): ~8%
- Treatment-related AEs of hypertension (healthy adult subjects [3]; ketamine 18 mg IV): 3 AEs
- Mean changes from baseline in systolic and diastolic blood pressures (healthy adult subjects [4]): highest at the 10-minute timepoint

Compound: Cc1ncc2n1-c1ccc(Cl)cc1C(c1ccccc1F)=NC2 [Midazolam, 8-chloro-6-(2-fluorophenyl)-1-methyl-4H-imidazo[1,5-a][1,4]benzodiazepine]
- AUCExtrap, midazolam [1, 8]: 5.58%
- Clast, midazolam [1, 8]: 0.963 ng/mL
- Vd ([1]; human, plasma, iv, 3.5 mg): 202 L
- clearance ([1]; human, plasma, iv, 3.5 mg): 348 mL/min
- half-life ([1]; human, plasma, iv, 3.5 mg): 420 min
- AUC(0-t) ([1]; human, plasma, iv, 3.5 mg, AUC0-t, midazolam, Treatment C: midazolam 3.5 mg IV, mean): 168 ng·h/mL
- AUC(0-inf) ([1]; human, plasma, iv, 3.5 mg, AUCinf, midazolam, Treatment C: midazolam 3.5 mg IV, mean): 179 ng·h/mL
- Cmax ([1]; human, plasma, iv, 3.5 mg, Cmax, midazolam, Treatment C: midazolam 3.5 mg IV, mean): 146 ng/mL
- AUC(0-t) ([1]; human, plasma, iv, 3.5 mg, GeoMean AUC0-t, midazolam, Ref (C) midazolam 3.5 mg IV, least squares geometric mean): 164 ng·h/mL
- AUC(0-inf) ([1]; human, plasma, iv, 3.5 mg, GeoMean AUCinf, midazolam, Ref (C) midazolam 3.5 mg IV, least squares geometric mean): 174 ng·h/mL
- Cmax ([1]; human, plasma, iv, 3.5 mg, GeoMean Cmax, midazolam, Ref (C) midazolam 3.5 mg IV, least squares geometric mean): 127 ng/mL
- Tmax ([1]; human, plasma, iv, 3.5 mg, Median Tmax, midazolam, Treatment C: midazolam 3.5 mg IV): 11 min
- Tmax ([1]; human, plasma, iv, 3.5 mg, Tmax, midazolam, Treatment C: midazolam 3.5 mg IV, median (range)): 11 min
- Subjects with RSS scores of 3 (healthy adult subjects [2]; 5 minutes after midazolam 3.5 mg IV): 2 (8.3%) subjects (%)
- Highest proportion of subjects with RSS scores >2 postdose (healthy adult subjects [2]; midazolam 3.5 mg IV): ~54%
- Number of treatment-related AEs (healthy adult subjects [3]; midazolam 3.5 mg IV): 2 events
- Mean changes from baseline in systolic and diastolic blood pressures (healthy adult subjects [4]): minimal and similar
- Mean change from baseline in pulse oximetry (healthy adult subjects [4]; midazolam 3.5 mg IV at 10 minutes postdose, MELT-100 6/50 mg at 30 minutes postdose, minimal at 2 hours): small mean decrease from baseline
- PR duration (healthy adult subjects [5]): abnormal
